Measurements reported in US10894805B2, “Prodrugs of the selective progesterone receptor modulator (SPRM) (11β,17β)-17-Hydroxy-11-[4-(methylsulphonyl)phenyl] -17-(pentafluoroethyl)estra-4,9-dien-3-one” (BAYER PHARMA AKTIENGESELLSCHAFT, priority 2016, dated 2021).

What was measured:
[1] = system: Progesterone receptor; settings: DeManno et al., Steroids 68 (2003); cited from earlier work
[2] = target: T1, human progesterone receptor A (Homo sapiens, UniProt P06401); assay: PR-A transactivation assay in SK-N-MC cells (method as described in WO2011/009531); type: cell-based
T1 construct: expressed in transfected cells; host or cells: SK-N-MC (human neuroblastoma cells), stably transfected
T1 sequence (P06401 1-769 isoform P06401-2): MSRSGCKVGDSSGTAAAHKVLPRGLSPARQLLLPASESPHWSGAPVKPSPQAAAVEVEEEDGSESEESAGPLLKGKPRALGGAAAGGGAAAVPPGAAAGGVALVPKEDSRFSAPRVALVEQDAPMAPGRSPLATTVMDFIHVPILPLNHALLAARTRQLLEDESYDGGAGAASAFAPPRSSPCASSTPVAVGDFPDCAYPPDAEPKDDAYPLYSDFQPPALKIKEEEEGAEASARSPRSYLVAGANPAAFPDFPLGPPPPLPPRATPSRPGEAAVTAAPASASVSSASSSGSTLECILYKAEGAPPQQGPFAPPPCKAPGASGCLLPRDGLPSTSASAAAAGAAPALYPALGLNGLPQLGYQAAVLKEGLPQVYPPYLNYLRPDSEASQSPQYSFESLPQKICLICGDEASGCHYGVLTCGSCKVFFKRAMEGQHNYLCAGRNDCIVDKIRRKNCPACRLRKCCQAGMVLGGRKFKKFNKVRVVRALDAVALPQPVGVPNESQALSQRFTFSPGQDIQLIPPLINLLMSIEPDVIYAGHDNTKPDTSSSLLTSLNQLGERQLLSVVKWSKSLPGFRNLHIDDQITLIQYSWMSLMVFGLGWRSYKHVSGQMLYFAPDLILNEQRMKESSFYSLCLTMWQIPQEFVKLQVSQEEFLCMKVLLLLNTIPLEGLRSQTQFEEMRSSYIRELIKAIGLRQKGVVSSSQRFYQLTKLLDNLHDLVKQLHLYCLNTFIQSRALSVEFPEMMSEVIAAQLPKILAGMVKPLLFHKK
Description: (§1) SK-N-MC cells (human neuroblastoma cells), which have been stably transfected with plasmids, which express the human progesterone receptor B ([…]) or the human progesterone receptor A (pRChPR-A-neo) and a reporter construct (pMMTV-LUC), were incubated for 24 hours either in the absence (negative control) or in the presence of increasing amounts of the respective Compound 2 (0.01 nmol/l, 0.1 nmol/l, 1 nmol/l, 10 nmol/l, 100 nmol/land […]), in order to determine the agonistic efficacy. As positive control of reporter gene induction, the cells were treated with the synthetic gestagen promegestone (0.01 nmol/l, 0.1 nmol/l, 1 nmol/l, 10 nmol/l, 100 nmol/l and […]). For determination of the antagonistic activity, the cells were treated with 0.1 nmol/l promegestone and additionally with increasing amounts of the respective test compound (0.01 nmol/l, 0.1 nmol/l, 1 nmol/l, 10 nmol/l, 100 nmol/l and […]). The activity of the LUC reporter gene (LUC=luciferase) was determined in the cell lysates and was measured as RLU (relative light units).

[3] = target: T2, human progesterone receptor B (Homo sapiens, UniProt P06401); assay: PR-B transactivation assay in SK-N-MC cells (method as described in WO2011/009531); type: cell-based
T2 construct: expressed in transfected cells; host or cells: SK-N-MC (human neuroblastoma cells), stably transfected
T2 sequence (P06401 1-933): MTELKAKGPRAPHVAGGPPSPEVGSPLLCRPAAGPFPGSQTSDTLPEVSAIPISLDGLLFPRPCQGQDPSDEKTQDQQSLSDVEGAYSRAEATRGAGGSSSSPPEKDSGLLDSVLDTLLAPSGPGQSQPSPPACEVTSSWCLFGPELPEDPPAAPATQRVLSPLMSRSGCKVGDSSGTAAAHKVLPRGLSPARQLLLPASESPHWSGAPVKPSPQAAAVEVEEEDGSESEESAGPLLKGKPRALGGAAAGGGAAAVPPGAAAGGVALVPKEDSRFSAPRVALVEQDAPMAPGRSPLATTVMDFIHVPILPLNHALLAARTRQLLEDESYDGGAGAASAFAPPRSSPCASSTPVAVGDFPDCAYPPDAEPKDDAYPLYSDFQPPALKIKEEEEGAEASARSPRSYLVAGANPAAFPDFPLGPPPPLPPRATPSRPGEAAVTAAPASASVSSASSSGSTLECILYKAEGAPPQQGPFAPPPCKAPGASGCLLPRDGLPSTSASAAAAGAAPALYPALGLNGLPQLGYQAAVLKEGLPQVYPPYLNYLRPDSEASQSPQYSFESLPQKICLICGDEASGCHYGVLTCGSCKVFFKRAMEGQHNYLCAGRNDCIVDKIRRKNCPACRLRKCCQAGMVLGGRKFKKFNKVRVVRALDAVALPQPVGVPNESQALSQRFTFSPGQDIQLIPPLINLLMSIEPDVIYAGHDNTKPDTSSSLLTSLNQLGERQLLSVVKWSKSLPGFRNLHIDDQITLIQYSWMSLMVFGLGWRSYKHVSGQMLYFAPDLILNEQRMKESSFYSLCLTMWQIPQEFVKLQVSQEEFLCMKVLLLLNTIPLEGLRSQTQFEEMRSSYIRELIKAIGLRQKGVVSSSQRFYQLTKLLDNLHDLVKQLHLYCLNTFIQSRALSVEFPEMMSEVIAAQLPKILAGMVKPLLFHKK
Description: as §1

[4] = In vitro metabolism of 14C-labeled Compound 2 in human liver cytosol; type: in vitro ADME
Description: Human liver cytosol was incubated with (11β,17β)-17-Hydroxy-11-[4-(methylsulphonyl)phenyl]-17-(pentafluoroethyl)estra-4,9-dien-3-one (Compound 2).
The incubation mixture containing buffer, reconstituting system and cytosolic protein was preincubated at 37° C. for 3 min. Incubation was started by the addition of the solution containing (11β,17β)-17-Hydroxy-11-[4-(methylsulphonyl)phenyl]-17-(pentafluoroethyl)estra-4,9-dien-3-one (Compound 2). The samples were incubated at 37° C. in a continuously operating shaking water bath. 250 μL of the incubation mixture was stopped by the addition of 100 μL acetonitrile. The stopped incubations were centrifuged for 10 minutes at 13000 rpm (4° C.) and stored at −18° C. until they were subsequently analysed. 50 μL of the supernatant was examined by chromatography and detected by radiometry and mass spectrometry.

[5] = Plasma concentrations and pharmacokinetic parameters of Compounds 1 and 2 in rats after oral Compound 1; type: in vivo, rat; settings: for Cmax: po
Description: Under the same conditions as described in Example 2 three single dosages of Compound 1 (0.2, 1.0 and 5 mg/kg/day) were administered to rats. Blood samples were taken from the rats at several time-points (1, 2, 4, 7 and 24 h, N=3 animals at each time-point), to allow for calculation of AUC (0-24) and Cmax of compound 1 and compound 2 in rat plasma. The plasma samples were stored at −15° C. until analysis. Compound 1 and 2 were determined in plasma after protein precipitation with acetonitrile containing the internal standards for compound 1 and compound 2. The supernatant was analyzed by separation employing high-pressure liquid chromatography and tandem mass spectrometric detection. The lower limit of quantitation (LLOQ) for Compound 1 was 1.00 μg/L, the linear range between 1.00 and 200 μg/L. The lower limit of quantitation (LLOQ) for Compound 2 was 0.200 μg/L, the linear range between 0.200 and 200 μg/L. A sample volume of 0.1 mL plasma was used. The precision for Compound 1 ranged between 0.97 and 3.73%, accuracy between 99.8 and 101.3%, for Compound 2 precision ranged between 2.01 and 6.19%, accuracy between 92.3 and 96.6% calculated from the study quality control samples.

[6] = In vitro metabolism of 14C-labeled Compound 1 in human liver microsomes; type: in vitro ADME
Description: Human liver microsomes were incubated with (3α,11β,17β)-11-[4-(^14C-methylsulfonyl)phenyl]-17-(pentafluoroethyl)estra-4,9-diene-3,17-diol (Compound 1).
The incubation mixture containing buffer, reconstituting system and microsomal protein was preincubated at 37° C. for 3 min. Incubation was started by the addition of the solution containing (3α,11β,17β)-11-[4-(methylsulfonyl)phenyl]-17-(pentafluoroethyl)estra-4,9-diene-3,17-diol (Compound 1). The samples were incubated at 37° C. in a continuously operating shaking water bath. The incubation reaction was stopped by the addition of 160 μL acetonitrile. The stopped incubations were centrifuged for 10 minutes at 13000 rpm (4° C.) and stored at −18° C. until they were subsequently analysed. 50 μL of the supernatant was examined by chromatography and detected by radiometry and mass spectrometry.

[7] = target: recombinant human CYP3A4 (Homo sapiens, UniProt P08684); assay: In vitro metabolism of 14C-labeled Compound 1 in recombinant human CYP3A4 enzyme; type: in vitro ADME
Chain of recombinant human CYP3A4 (P08684 whole entry): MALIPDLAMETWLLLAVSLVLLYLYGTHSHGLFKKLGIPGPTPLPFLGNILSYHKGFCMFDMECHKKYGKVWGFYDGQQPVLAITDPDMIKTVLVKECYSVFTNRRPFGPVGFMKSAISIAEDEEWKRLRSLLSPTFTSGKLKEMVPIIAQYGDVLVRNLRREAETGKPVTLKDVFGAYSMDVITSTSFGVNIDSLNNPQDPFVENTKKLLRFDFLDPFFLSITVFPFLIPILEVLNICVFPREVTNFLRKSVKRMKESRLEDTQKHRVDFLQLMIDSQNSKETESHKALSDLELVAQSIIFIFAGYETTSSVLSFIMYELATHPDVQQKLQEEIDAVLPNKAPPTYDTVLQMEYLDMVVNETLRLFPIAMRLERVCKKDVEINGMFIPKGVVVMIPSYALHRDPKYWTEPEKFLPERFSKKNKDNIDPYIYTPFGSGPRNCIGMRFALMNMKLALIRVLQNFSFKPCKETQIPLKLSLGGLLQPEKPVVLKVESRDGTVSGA
Description: Recombinant human CYP3A4 was incubated with (3α,11β,17β)-11-[4-(^14C-methylsulfonyl)phenyl]-17-(pentafluoroethyl)estra-4,9-diene-3,17-diol (Compound 1).
The incubation mixture containing buffer, reconstituting system and CYP3A4 protein was prepared and given into a 37° C. shaking water bath. Incubation was started by the addition of the solution containing (3α,11β,17β)-11-[4-(methylsulfonyl)phenyl]-17-(pentafluoroethyl)estra-4,9-diene-3,17-diol (Compound 1). The samples were incubated at 37° C. in a continuously operating shaking water bath. 200 μL of the incubation mixture were removed after incubation time and the reaction was stopped by the addition of 120 μL acetonitrile on an ice bath. The stopped incubations were centrifuged for 10 minutes at 12000 rpm (7° C.). After removing of the supernatant from the protein pellet the supernatant was stored at −20° C. until they were subsequently analysed. 50 μL of the supernatants was examined by chromatography and detected by radiometry and mass spectrometry.

[8] = Plasma concentrations of Compound 3 and its metabolite Compound 2 in rats; type: in vivo, rat
Description: Under the same conditions as described in Example 3, Compound 3 (5 mg/kg/day) was administered to female rats at a dose of 5 mg/kg. Blood samples were taken from the rats at several time-points (0.5, 1, 3, 6 h, N=3 animals at each time-point), to allow for calculation of AUC (0-inf) of compound 3 and compound 2 in rat plasma.
The plasma samples were stored at −15° C. until analysis. Compound 3 and compound 2 were determined in plasma after protein precipitation with acetonitrile containing the internal standards for compound 3 and compound 2. The supernatant was analyzed by separation employing high-pressure liquid chromatography and tandem mass spectrometric detection. AUC (0-inf) means Area Under the plasma Concentration vs. time curve (0-inf) from zero to infinity.

[9] = rat plasma, single p.o. dose of Compound 1, 0.2 mg/kg

## COC[C@]1(OC)CC[C@H]2[C@@H]3CCC4=CC(=O)CCC4=C3[C@@H](c3ccc(/C=N/O)cc3)C[C@@]21C [Asoprisnil (J867), Asoprisnil]
[1]
  Progesterone binding affinity, Relative molar Binding Affinity (RBA): about 299 % RBA

## C[C@]12C[C@H](c3ccc(S(C)(=O)=O)cc3)C3=C4CCC(=O)C=C4CC[C@H]3[C@@H]1CC[C@@]2(O)C(F)(F)C(F)(F)F [Compound 2, (11β,17β)-17-Hydroxy-11-[4-(methylsulphonyl)phenyl]-17-(pentafluoroethyl)estra-4,9-dien-3-one]
[2]
  agonistic activity on PR-A: no agonistic activity
  antagonism on PR-A: very strong antagonist
[3]
  agonistic activity on PR-B: no agonistic activity
  antagonism on PR-B: very strong antagonist
[4]; 10 μM, 1.0 mg/mL cytosolic protein, NADPH, after 1 and 4 hours
  proportion of Compound 2 compared to 0 hr sample: marked decrease
[4]; absence of NADPH generating system as well as presence of NAD co-factor
  turnover of Compound 2 to Compound 1 in liver cytosol: No turnover
[4]; incubation of 10 μM Compound 2, after 1 and 4 hours
  Compound 1 formed in the incubation sample: significant quantity

## C[C@]12C[C@H](c3ccc(S(C)(=O)=O)cc3)C3=C4CC[C@@H](O)C=C4CC[C@H]3[C@@H]1CC[C@@]2(O)C(F)(F)C(F)(F)F [Compound 1, (3α,11β,17β)-11-[4-(methylsulfonyl)phenyl]-17-(pentafluoroethyl)estra-4,9-diene-3,17-diol]
[5]; after oral Compound 1
  conversion into Compound 2 in rat: almost completely converted
[5]; [9]
  Cmax: < 1 ng/mL
  Compound 1 Cmax: <1.00 ng/mL
[5]; rat plasma, single p.o. dose of Compound 1, 1.0 mg/kg
  Cmax: 3.36 ng/mL
[5]; rat plasma, single p.o. dose of Compound 1, 5.0 mg/kg
  Cmax: 12.9 ng/mL
[5]; single oral dose of Compound 1, 5.0 mg/kg
  maximum concentration of remaining compound 1 in rat plasma: 12.9 µg/L
[6]; 1 μM, 0.5 mg/mL protein, after 1 hours incubation
  proportion of Compound 1 compared to 0 hr sample: marked decrease
[6]; incubation of 1 μM Compound 1, after 1 hour
  Compound 2 formed in the incubation sample: large quantity
[7]; after 0.5 and 2 hours incubation with rhCYP3A4
  proportion of Compound 1 compared to 0 hr sample: marked decrease
[7]; incubation of Compound 1 with rhCYP3A4
  Compound 2 formed in the incubation sample: large quantity
[7]; incubation of Compound 1 with rhCYP3A4, after 120 min
  amount of compound 2 in the incubation sample: decreased remarkably
[7]; incubation time with rhCYP3A4 0 h
  Compound 1 (% of 14C-radioactivity): 82%
[7]; incubation time with rhCYP3A4 0.5 h
  Compound 1 (% of 14C-radioactivity): 52%
[7]; incubation time with rhCYP3A4 2 h
  Compound 1 (% of 14C-radioactivity): 2.7%

## C[C@]12C[C@H](c3ccc([S@](C)(=N)=O)cc3)C3=C4CCC(=O)C=C4CCC3C1CC[C@@]2(O)C(F)(F)C(F)(F)F (stereo partly drawn) [Compound 3, (11β,17β)-17-hydroxy-11-[4-(RS-methylsulphonimidoyl)phenyl]-17-(pentafluoroethyl)estra-4,9-dien-3-one]
[8]; after oral Compound 3
  conversion into Compound 2 in rat: partially converted
[8]; po, rat plasma, single p.o. 5 mg/kg of Compound 3, female rats
  AUC(0-inf): 1240 ng·h/mL
